Results on one compound are retold here after patent publication US20080262043A1, “Solid Crystalline Form of Pantoprazole Free Acid, Salts Derived Therefrom and Process for Their Preparation” (MEDICHEM, S.A., priority 2005, published 2008).

A short description of this data set: Solid-state stability of the crystalline form upon drying under vacuum. In kind it is physicochemical. The following applies: drying under vacuum at approximately 40° C. for approximately 2 hours.

With `COc1ccnc(C[S+]([O-])c2nc3cc(OC(F)F)ccc3[nH]2)c1OC` (stereo not shown) [Form III pantoprazole free acid, 5-(difluoromethoxy)-2-[[(3,4-dimethoxy-2-pyridinyl)methyl]sulfinyl]-1H-benzimidazole], the “change in the crystalline structure upon drying” value was “no change in the crystalline structure”.
